Test results published in patent publication US20240132449A1, “HETEROCYCLIC COMPOUNDS AND METHODS OF USE THEREOF” (1cBio, Inc., priority 2022, published 2024).
Counter-ions that a name gives are not always drawn.

Assays:
recombinant human PARP2 = recombinant human PARP2 (Homo sapiens, UniProt Q9UGN5); experiment: PARP2 fluorescence polarization binding assay; conditions: for IC50: binding IC50, GST-tagged PARP2 20 nM, PARPi-FL 3 nM; for inhibition at 10 µM: read-out: PARP2 % inh at 10 μM
Experimental: Compounds of the present disclosure were tested in a PARP2 fluorescence polarization binding assay at Pharmaron (Beijing, P.R. China). In this biochemical assay, binding of test compound to recombinant human PARP2 reduces the amount of binding of a fluorescent probe, and consequently reduces the detected level of fluorescence polarization. Test compound stock solutions were prepared in DMSO and then serially diluted into 10 concentrations by 3-fold dilution in a 384-well plate using a TECAN EVO200. Alternatively, a single concentration was prepared. 60 nL of each dilution was transferred to the plate using an Echo550 (Labcyte), and then 10 μL 40 nM GST-tagged PARP2 (BPS Bioscience, Cat #80502), diluted in assay buffer (50 mM Tris pH 8.0, 0.001% Triton X-100, 10 mM MgCl2, 150 mM NaCl), was added to the plate. After a centrifugation at 1000 rpm for 1 min, the assay plate was incubated for 30 min at RT. 10 μL 6 nM PARPi-FL (TOCRIS, Cat #6461), diluted using assay buffer, was then added to the plate. […] After a centrifugation at 1000 rpm for 1 min, the assay plate was incubated for 4 h at RT. Samples in each well were read using an Envision instrument (Perkin-Elmer; Ex=480 nm Em=FITC FP-P pol 535 nm & FITC FP-S pol 535 nm). […] Binding IC50 values were calculated using XLFit (equation 201: […])^D))), where A=bottom, B=top, C=IC50, and D=slope) with a floating top and bottom for curves.

[1] = test system: DLD-1 wild-type colorectal adenocarcinoma cells; experiment: Cell viability assay (Cell Titer-Glo), DLD-1 wild-type; type: cell-based; conditions: Homo sapiens, DLD-1, 168 h, 7 days incubation; for inhibition at 10 µM: read-out: DLD-1 wild-type % inh at 10 μM; for IC50: 50 cells/well
Experimental: (§1) Compounds of the present disclosure were tested for their effects on the viability of cancer cells. DLD-1 wild-type and DLD-1 BRCA2(−/−) colorectal adenocarcinoma cells, an isogenic pair of cell lines differing in the presence and absence, respectively, of both BRCA2 alleles, were used. The cells were harvested during the logarithmic growth period, counted, and seeded at 50 cells/well for DLD-1 wild-type and 200 cells/well for DLD-1 BRCA2(−/−) in a 384-well cell culture plate. After seeding, cells were incubated at 37° C., 5% CO2 overnight. Cells were treated with serially diluted test compounds at 10 concentrations (e.g., from 1.5 nM-30 μM) for generation of dose response curves, or at a single concentration. The plate was further incubated for another 7 days in a humidified incubator at 37° C. and 5% CO2. Cell viability was assessed by luminescence measurement after addition of Cell Titer-Glo reagent (Promega, Madison, Wis.) according to the manufacturer's instructions. Cell viability IC50 values were calculated using XLFit, equation 201: y=A+((B−A)/(1+((x/C)^D))), where A=bottom, B=top, C=IC50, and D=slope. IC50 values are shown in Table B and are presented in ranges, in which “+++”<300 nM, 300 nM≤“++”<3000 nM, and “+”≥3000 nM. Values for percent inhibition at 10 μM are also shown in Table B and are presented in ranges, in which “***”≥67%, 33%≤“**”<67%, and “*”<33%. Effects of the test compounds on the viability of other cell lines such as MDA-MB-436, MDA-MB-231, SUM149PT, HCC1395, and UWB1.289 are determined in an analogous method.

[2] = test system: DLD-1 BRCA2(−/−) colorectal adenocarcinoma cells; experiment: Cell viability assay (Cell Titer-Glo), DLD-1 BRCA2(−/−); type: cell-based; conditions: Homo sapiens, DLD-1, 168 h; 7 days incubation, 200 cells/well
Experimental: as §1

PARP1 = PARP1 (Homo sapiens, UniProt P09874); experiment: PARP1 fluorescence polarization binding assay; conditions: binding IC50, GST-tagged PARP1 20 nM, PARPi-FL 3 nM
Sequence of PARP1 (P09874 whole entry): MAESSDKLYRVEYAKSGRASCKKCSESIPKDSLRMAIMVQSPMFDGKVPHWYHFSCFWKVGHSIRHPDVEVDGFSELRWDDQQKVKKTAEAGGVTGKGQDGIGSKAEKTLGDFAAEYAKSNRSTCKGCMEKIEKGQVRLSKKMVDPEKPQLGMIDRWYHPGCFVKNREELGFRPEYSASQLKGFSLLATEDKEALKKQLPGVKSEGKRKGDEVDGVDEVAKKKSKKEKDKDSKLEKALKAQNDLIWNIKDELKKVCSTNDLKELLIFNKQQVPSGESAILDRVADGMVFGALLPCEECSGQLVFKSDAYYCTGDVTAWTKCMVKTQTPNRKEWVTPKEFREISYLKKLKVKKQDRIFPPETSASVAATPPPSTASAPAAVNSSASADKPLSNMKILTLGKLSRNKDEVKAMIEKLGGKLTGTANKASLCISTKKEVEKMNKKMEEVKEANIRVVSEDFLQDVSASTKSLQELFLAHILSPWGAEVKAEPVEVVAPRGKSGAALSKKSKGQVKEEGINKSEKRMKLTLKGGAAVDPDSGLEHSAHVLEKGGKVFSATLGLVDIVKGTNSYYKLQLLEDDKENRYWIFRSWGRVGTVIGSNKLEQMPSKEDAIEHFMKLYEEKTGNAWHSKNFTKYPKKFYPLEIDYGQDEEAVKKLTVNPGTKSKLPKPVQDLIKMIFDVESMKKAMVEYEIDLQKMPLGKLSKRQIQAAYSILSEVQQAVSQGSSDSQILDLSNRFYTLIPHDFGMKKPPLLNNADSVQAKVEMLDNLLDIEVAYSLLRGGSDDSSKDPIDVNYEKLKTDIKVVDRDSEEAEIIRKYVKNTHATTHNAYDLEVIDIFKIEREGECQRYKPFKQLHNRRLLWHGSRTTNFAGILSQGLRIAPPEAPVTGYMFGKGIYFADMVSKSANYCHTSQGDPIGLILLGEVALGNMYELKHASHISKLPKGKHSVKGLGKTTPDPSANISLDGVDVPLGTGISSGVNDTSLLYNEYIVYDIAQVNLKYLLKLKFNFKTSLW
Experimental: Compounds of the present disclosure were tested in a PARP1 fluorescence polarization binding assay at Pharmaron (Beijing, P.R.China). In this biochemical assay, binding of test compound to recombinant human PARP1 reduces the amount of binding of a fluorescent probe, and consequently reduces the detected level of fluorescence polarization. Test compound stock solutions were prepared in DMSO and then serially diluted into 10 concentrations by 3-fold dilution in a 384-well plate using a TECAN EVO200. 60 nL of each dilution was transferred to the plate using an Echo550 (Labcyte), and then 10 μL 40 nM GST-tagged PARP1 (BPS Bioscience, Cat #80501), diluted in assay buffer (50 mM Tris pH 8.0, 0.001% Triton X-100, 10 mM MgCl2, 150 mM NaCl), was added to the plate. After a centrifugation at 1000 rpm for 1 min, the assay plate was incubated for 30 min at RT. 10 μL 6 nM PARPi-FL (TOCRIS, Cat #6461), diluted using assay buffer, was then added to the plate. The final concentrations of PARP1 and PARPi-FL were 20 nM and 3 nM, respectively, in a total volume of 20 μL. After a centrifugation at 1000 rpm for 1 min, the assay plate was incubated for 4 h at RT. Samples in each well were read using an Envision instrument (Perkin-Elmer; Ex=480 nm Em=FITC FP-P pol 535 nm & FITC FP-S pol 535 nm). Percent inhibition was calculated from mP values using Inhibition (%)=[1−(mPc−mPL)/(mPH−mPL)]×100%, where mPc, mPL, and mPH are the mP values of test compound, Low controls, and High controls, respectively. Binding IC50 values were calculated using XLFit (equation 201: y=A+((B−A)/(1+((x/C)^D))), where A=bottom, B=top, C=IC50, and D=slope) with a floating top and bottom for curves. Binding IC50 values are shown in Table A and are presented in ranges, in which “+++”<100 nM, 100 nM≤“++”<3000 nM, and “+”≥3000 nM.

Sequence of recombinant human PARP2 (Q9UGN5 whole entry): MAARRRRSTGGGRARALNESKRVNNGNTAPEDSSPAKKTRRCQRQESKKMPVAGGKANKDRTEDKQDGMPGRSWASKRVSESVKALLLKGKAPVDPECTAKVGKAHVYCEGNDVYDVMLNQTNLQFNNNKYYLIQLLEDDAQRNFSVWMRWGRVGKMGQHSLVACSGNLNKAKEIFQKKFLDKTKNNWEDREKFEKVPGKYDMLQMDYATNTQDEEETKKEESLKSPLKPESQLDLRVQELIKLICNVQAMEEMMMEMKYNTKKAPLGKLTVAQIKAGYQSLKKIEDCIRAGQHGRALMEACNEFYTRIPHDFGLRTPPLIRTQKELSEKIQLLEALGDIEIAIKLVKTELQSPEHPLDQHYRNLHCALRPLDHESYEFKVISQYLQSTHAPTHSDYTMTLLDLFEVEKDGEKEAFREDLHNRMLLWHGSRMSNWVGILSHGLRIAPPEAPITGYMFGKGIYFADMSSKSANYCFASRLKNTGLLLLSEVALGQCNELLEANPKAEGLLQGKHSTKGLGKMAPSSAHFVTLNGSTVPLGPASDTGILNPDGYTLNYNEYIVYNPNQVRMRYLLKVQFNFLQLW

| Structure (SMILES) | IC50 (recombinant human PARP2) [µM] | inhibition at 10 µM (recombinant human PARP2) [%] | inhibition at 10 µM [1] [%] | IC50 [1] [nM] | IC50 [2] [nM] | IC50 (PARP1) [nM] |
| --- | --- | --- | --- | --- | --- | --- |
| CCn1c(=O)[nH]c2cc(CN3CC4(C3)CN(c3ccc(C(=O)NC)nc3)C4)ccc2c1=O [Compound 100, 5-{6-[(3-ethyl-2,4-dioxo-1,2,3,4-tetrahydroquinazolin-7-yl)methyl]-2,6-diazaspiro[3.3]heptan-2-yl}-N-methylpyridine-2-carboxamide hemiformate] | > 3 | 33 to 67 | < 33 | > 3000 | > 3000 | 100 to 3000 |
| CCn1c(=O)[nH]c2c(F)c(CN3CCN(c4ccc(C(=O)NC)nc4C)CC3)ccc2c1=S [Compound 184, 5-(4-((3-ethyl-8-fluoro-2-oxo-4-thioxo-1,2,3,4-tetrahydroquinazolin-7-yl)methyl)piperazin-1-yl)-N,6-dimethylpicolinamide] | > 3 | 33 to 67 | 33 to 67 | > 3000 | < 300 | < 100 |
| CCN1Cc2ccc(CN3CCN(c4ccc(C(=O)NC)nc4C)CC3)cc2NC1=O [Compound 202, 5-{4-[(3-ethyl-2-oxo-1,4-dihydroquinazolin-7-yl)methyl]piperazin-1-yl}-N,6-dimethylpyridine-2-carboxamide] |  | 33 to 67 | < 33 | > 3000 | < 300 | < 100 |
| CCN1Cc2ccc(CN3CCN(c4ccc(F)cc4F)CC3)cc2NC1=O [Compound 225, 7-{[4-(2,4-difluorophenyl)piperazin-1-yl]methyl}-3-ethyl-1,4-dihydroquinazolin-2-one] |  | 33 to 67 | < 33 | > 3000 | > 3000 | < 100 |
| CCn1c(=O)[nH]c2cc(CN3CCN(c4ccc(F)cc4F)CC3)ccc2c1=O [Compound 226, 7-{[4-(2,4-difluorophenyl)piperazin-1-yl]methyl}-3-ethyl-1H-quinazoline-2,4-dione formate] |  | 33 to 67 | < 33 | > 3000 | > 3000 | < 100 |
| CCn1c(=O)[nH]c2cc(CN3CCN(c4ccc(C(=O)NC)cc4F)CC3)sc2c1=O [Compound 232] | > 3 | 33 to 67 | < 33 | > 3000 | > 3000 | < 100 |
| CCC(=O)c1ccc(N2CCN(Cc3cc4[nH]c(=O)n(CC)c(=O)c4s3)CC2)c(C)n1 [Compound 326, 3-ethyl-6-((4-(2-methyl-6-propionylpyridin-3-yl)piperazin-1-yl)methyl) thieno[3,2-d]pyrimidine-2,4(1H,3H)-dione formate] | > 3 | 33 to 67 | < 33 | > 3000 | > 3000 | < 100 |
| CCn1c(=O)[nH]c2cc(CN3CCN(c4cnc5c(NC)nccc5c4)CC3)sc2c1=O [Compound 360, 3-ethyl-6-((4-(8-(methylamino)-1,7-naphthyridin-3-yl)piperazin-1-yl)methyl)thieno[3,2-d]pyrimidine-2,4(1H,3H)-dione formate] | > 3 | 33 to 67 | 33 to 67 | > 3000 | > 3000 | < 100 |
| CCn1c(=O)[nH]c2cc(CN3CCC(c4ccc(C(=O)NC)nc4C)CC3)ccc2c1=S [Compound 498, 5-(1-((3-ethyl-2-oxo-4-thioxo-1,2,3,4-tetrahydroquinazolin-7-yl)methyl)piperidin-4-yl)-N,6-dimethylpicolinamide formate] | > 3 | 33 to 67 | 33 to 67 | > 3000 | > 3000 | < 100 |
| CCn1c(=O)[nH]c2cc(CN3CCN(c4ccc(C(=O)NC)nc4C)CC3)cc(Br)c2c1=S [Compound 501, 5-(4-((5-bromo-3-ethyl-2-oxo-4-thioxo-1,2,3,4-tetrahydroquinazolin-7-yl)methyl)piperazin-1-yl)-N,6-dimethylpicolinamide formate] | > 3 | 33 to 67 | < 33 | > 3000 | 300 to 3000 | < 100 |
| CCn1c(=O)[nH]c2cc(CN3CCN(c4ccc(C(=O)NC)nc4C)CC3)c(Br)cc2c1=S [Compound 504, 5-(4-((6-bromo-3-ethyl-2-oxo-4-thioxo-1,2,3,4-tetrahydroquinazolin-7-yl)methyl)piperazin-1-yl)-N,6-dimethylpicolinamide] | > 3 | 33 to 67 | < 33 | > 3000 | 300 to 3000 | 100 to 3000 |
| CCn1c(=O)[nH]c2cc(CN3CCN(c4ccc(C(=O)NC)nc4C)CC3)c(C#N)cc2c1=S [Compound 505, 5-(4-((6-cyano-3-ethyl-2-oxo-4-thioxo-1,2,3,4-tetrahydroquinazolin-7-yl)methyl)piperazin-1-yl)-N,6-dimethylpicolinamide trifluoroacetate] | > 3 | 33 to 67 | < 33 | > 3000 | 300 to 3000 | < 100 |
| CCn1c(=O)[nH]c2cc(C=C3CCN(c4ccc(C(=O)NC)nc4C)CC3)ccc2c1=S [Compound 507, 5-(4-((3-ethyl-2-oxo-4-thioxo-1,2,3,4-tetrahydroquinazolin-7-yl)methylene)piperidin-1-yl)-N,6-dimethylpicolinamide] | > 3 | 33 to 67 | > 67 | > 3000 | > 3000 | < 100 |
| CCn1c(=O)[nH]c2cc(CN3CCN(c4ccc(C(N)=O)nc4C)CC3)sc2c1=O [Compound 516, 5-(4-((3-ethyl-2,4-dioxo-1,2,3,4-tetrahydrothieno[3,2-d]pyrimidin-6-yl)methyl)piperazin-1-yl)-6-methylpicolinamide] | > 3 | 33 to 67 | < 33 | > 3000 | > 3000 | < 100 |
